One series has as its system SARS-CoV-2 (WA1). Briefly: microbe, parasite or virus in culture. The series is classed as cell-based. The note with it: for antiviral effect of positive controls in the CPE assay: SARS-CoV-2 CPE assay.
Series [1] is described as follows: Cytotoxicity counter screen in Vero E6 cells (Cell Titer-Glo). The settings on record: African green monkey. (In general: Counterscreens check selectivity or assay interference.)
Series [2] relates to SARS CoV-2 nanoluciferase reporter virus (NLRV). The experiment in a line: microbe, parasite or virus in culture. The series is classed as cell-based. The note with it: Severe acute respiratory syndrome coronavirus 2, A549-ACE2, 72 h.
The subject of another series is OC43 virus. The experiment in a line: OC43 coronavirus infection assay in Huh7.5 cells. The series is classed as cell-based. The note with it: read-out: OC43 IC50.
In a further series the test system is 229E virus. Briefly: 229E coronavirus infection assay in Huh7.5 cells. Format: cell-based. The settings on record: read-out: 229E IC50.
The next series concerns VeroE6 cells. Briefly: Cytotoxicity counter screen in Vero E6 cells (Cell Titer-Glo). The settings on record: read-out: Cytotoxicity CC50; reference compounds, Vero E6 cells, 72 hours.
The mark [3] stands for this setting: Severe acute respiratory syndrome coronavirus 2, Vero C1008, 72 h, reference compounds, SARS-CoV-2 (WA1) CPE assay, Round 2, Vero E6, 72 hours, read-out: Antiviral IC50.
Where [4] appears, read: Severe acute respiratory syndrome coronavirus 2, Vero C1008.
Setting [5] is: Betacoronavirus 1, OC43, Huh7.5, 72 h.
Setting [6] is: Severe acute respiratory syndrome coronavirus 2, Vero C1008, VIRADEM compounds, SARS-CoV-2(WA1) CPE assay, Round 2, concentration range 1000-0.05 nM, Vero E6, read-out: IC50.
[7] abbreviates: VIRADEM compounds, SARS-CoV-2(WA1) CPE assay, Round 2, concentration range 1000-0.05 nM, Vero E6, read-out: IC50.

Where a name gives a salt, the structure may show the parent alone. Read-outs that look alike come from different tables or passages of the source. Where a SMILES comes first, the peptide text is derived from it.

A word on the IC50: it is the concentration needed to halve the response being measured. For orientation: CC50 means the concentration that lowers cell viability or growth by half. The term IC90 denotes the point of the concentration-response curve where the effect stands at 90%.

With `CCN(CCO)CCCC(C)Nc1ccnc2cc(Cl)ccc12` (stereo not shown) [Hydroxychloroquine, reference compound], the IC50 in the series on SARS-CoV-2 (WA1) (setting [3]) amounted to 2100 nM. The compound further yielded a CC50 at 72 h in series [1] (Vero E6 cells) above 30000 nM. Turning to `CC(=O)Nc1ccc(Nc2nc(Nc3ccc(C)c(C)c3)nc(N3CCOCC3)n2)cc1` [VIRADEM-11918, N-{4-[4-(3,4-Dimethylphenylamino)-6-morpholin-4-yl-[1,3,5]triazin-2-ylamino]phenyl}-acetamide], in series [2], the IC50 worked out at 19 nM and the IC90 came to 29 nM. `Cc1ccc(Nc2nc(Nc3ccc(C)c(C)c3)nc(N3CCOCC3)n2)cc1` [VIRADEM-11141]: the IC50 was 120 nM with SARS-CoV-2 (WA1) (setting [4]); 97 nM in series [2]; 1650 nM in the series on OC43 virus (setting [5]); 260 nM in the series on 229E virus (Huh7.5, 48 h). In series [2], the IC90 was 118 nM. As for `CCC(CC)COC(=O)[C@H](C)N[P@](=O)(OC[C@H]1O[C@@](C#N)(c2ccc3c(N)ncnn23)[C@H](O)[C@@H]1O)Oc1ccccc1` [Remdesivir, reference compound], the IC50 with SARS-CoV-2 (WA1) (setting [4]) was 7000 to 10000 nM; in the series with SARS-CoV-2 (WA1) (Severe acute respiratory syndrome coronavirus 2, Vero C1008, 72 h, read-out: Antiviral IC50), 10800 nM; in the series on OC43 virus (setting [5]) it was 9.7 nM; with 229E virus (Huh7.5, 48 h) it was 13 nM. In addition, the “Selectivity Index (CC50/IC50)” value in the series with SARS-CoV-2 (WA1) (reference compounds, Round 2) is given as above 2.8. In addition, the CC50 at 72 h in series [1] was above 30000 nM.

Regarding `CCN(CC)CCCC(C)Nc1ccnc2cc(Cl)ccc12` (stereo not shown) [Chloroquine, reference compound], in the series on SARS-CoV-2 (WA1), the “antiviral effect of positive controls in the CPE assay” value is given as “dose dependent antiviral effect”. The IC50 in the series with SARS-CoV-2 (WA1) (setting [3]) is 4030 nM. The CC50 at 72 h in series [1] was above 30000 nM. For `CC(C)C[C@H](NC(=O)OCc1ccccc1)C(=O)N[C@@H](CC(C)C)C(=O)N[C@@H](Cc1ccc(O)cc1)C(=O)CF` [Calpain Inhibitor IV, reference compound] (HELM PEPTIDE1{[O=C(OCc1ccccc1)[*:2]].L.L.Y.[FC[*:1]]}$$$$V2.0), in the series with SARS-CoV-2 (WA1), the “antiviral effect of positive controls in the CPE assay” value is reported as “dose dependent antiviral effect”. Also, the IC50 with SARS-CoV-2 (WA1) (reference compounds, SARS-CoV-2 (WA1) CPE assay, Round 2, Vero E6, 72 hours, read-out: Antiviral IC50) was 240 nM. Also, the CC50 in the series with VeroE6 cells is above 7170 nM. `CC(=O)Nc1ccc(Nc2nc(Nc3ccc(Cl)cc3)nc(N3CCOCC3)n2)cc1` [VIRADEM-11847, N-{4-[4-(4-Chlorophenylamino)-6-morpholin-4-yl-[1,3,5]triazin-2-ylamino]-phenyl}-acetamide]: the IC50 with SARS-CoV-2 (WA1) (setting [6]) worked out at 20 nM; in series [2] it was 32 nM; with OC43 virus (Betacoronavirus 1, OC43, 72 h, Huh7.5 cells, fixed 3 days after infection), 992 nM; with 229E virus (48 h, Huh7.5 cells, fixed 2 days after infection), 138 nM. Also, the IC90 in series [2] worked out at 41 nM.

Take `Cc1cc(C)cc(Nc2nc(Nc3ccc(Cl)c(Cl)c3)nc(N3CCOCC3)n2)c1` [VIRADEM-11759, N-(3,4-Dichlorophenyl)-N^1-(3,5-dimethyphenyl)-6-morpholin-4-yl-[1,3,5]triazine-2,4-diamine]: the IC50 in the series with SARS-CoV-2 (WA1) (setting [7]) was found to be 350 nM. For `Clc1cccc(Nc2nc(N3CCOCC3)nc(N3CCOCC3)n2)c1` [VIRADEM-10902, (3-Chlorophenyl)-(4,6-dimorpholin-4-yl-[1,3,5]triazin-2-yl)-amine hydrochloride], the half-inhibitory concentration (IC50) in the series on SARS-CoV-2 (WA1) (setting [6]) was above 1000 nM. In the case of `CC(C)(C)c1nnc(N2CCOCC2)nc1Nc1ccccc1` [VIRADEM-13044, (6-tert-Butyl-3-morpholin-4-yl-[1,2,4]triazin-5-yl)-phenyl-amine], the IC50 in the series on SARS-CoV-2 (WA1) (setting [6]) is above 1000 nM.

Consider `c1cc2c(cc1Nc1nc(N3CCCC3)nc(N3CCCC3)n1)OCO2` [VIRADEM-11522, Benzo[1,3]dioxol-5-yl-(4,6-dipyrrolidin-1-yl-[1,3,5]triazin-2-yl)-amine hydrochloride], for which, in the series on SARS-CoV-2 (WA1) (setting [6]), the IC50 is above 1000 nM. Consider `COc1ccc(CC(=O)N(N)c2nc(N3CCOCC3)nc(N3CCOCC3)n2)cc1` [VIRADEM-14302, (4-Methoxyphenyl)-acetic acid N1-(4,6-dimorpholin-4-yl-[1,3,5]triazin-2-yl)-hydrazide], for which the IC50 in the series on SARS-CoV-2 (WA1) (setting [6]) is above 1000 nM. For the compound “N-(3-Chlorophenyl)-N^1-phenyl)-6-pyrrolidin-1-yl-[1,3,5]triazine-2,4-diamine hydrochloride [VIRADEM-12312]”, in the series with SARS-CoV-2 (WA1) (setting [7]), the IC50 is above 1000 nM. For `CC(C)c1ccc(Nc2nc(N3CCOCC3)nc(N3CCOCC3)n2)cc1` [VIRADEM-12435, (4,6-Dimorpholin-4-yl-[1,3,5]triazin-2-yl)-(4-isopropylphenyl)-amine], the IC50 in the series on SARS-CoV-2 (WA1) (setting [6]) is above 1000 nM. In the case of `COc1cccc(Nc2nc(N3CCOCC3)nc(N3CCOCC3)n2)c1` [VIRADEM-10879, (4,6-Dimorpholin-4-yl-[1,3,5]triazin-2-yl)-(3-methoxyphenyl)-amine hydrochloride], the IC50 with SARS-CoV-2 (WA1) (setting [6]) is above 1000 nM. `COc1ccc(Nc2nc(Nc3cccc(C)c3)nc(N3CCOCC3)n2)cc1` [hydrochloride]: the IC50 in the series with SARS-CoV-2 (WA1) (setting [4]) was 230 nM. In the series on SARS-CoV-2 (WA1) (setting [4]), `Clc1ccccc1Nc1nc(Nc2ccccc2Cl)nc(N2CCOCC2)n1` [VIRADEM-14303, N,N^1-bis-(2-chlorophenyl)-6-morpholin-4-yl-[1,3,5]triazine-2,4-diamine] returned an IC50 above 1000 nM.

For `c1ccc(CNc2nc(N3CCOCC3)nc(N3CCOCC3)n2)cc1` [VIRADEM-15209, Benzyl-(4,6-dimorpholin-4-yl-[1,3,5]triazin-2-yl)-amine], the IC50 with SARS-CoV-2 (WA1) (setting [6]) is above 1000 nM. In the case of `c1ccc2c(c1)CCN2c1nc(N2CCOCC2)nc(N2CCOCC2)n1` [VIRADEM-15355, 1-(4,6-Dimorpholin-4-yl-[1,3,5]triazin-2-yl)-2,3-dihydro-1H-indole], the IC50 in the series with SARS-CoV-2 (WA1) (setting [6]) is above 1000 nM. With `CCOc1ccc(Nc2nc(N3CCOCC3)nc(N3CCOCC3)n2)cc1` [VIRADEM-9794, (4,6-Dimorpholin-4-yl-[1,3,5]triazin-2-yl)-(4-ethoxyphenyl)-amine hydrochloride], the IC50 with SARS-CoV-2 (WA1) (setting [6]) was above 1000 nM. As for `CC(=O)c1cccc(Nc2nc(Nc3ccc(Cl)cc3)nc(N3CCOCC3)n2)c1` [VIRADEM-11882, 1-{3-[4-(4-chlorophenylamino)-6-morpholin-4-yl-[1,3,5]triazin-2-ylamino]-phenyl}-ethanone], the IC50 in the series with SARS-CoV-2 (WA1) (setting [6]) came to 120 nM. Turning to `CC(=O)c1cccc(Nc2nc(Nc3ccc(C(C)C)cc3)nc(N3CCOCC3)n2)c1` [VIRADEM-12305, 1-{3-[4-(4-Isopropylphenylamino)-6-morpholin-4-yl-[1,3,5]triazin-2-ylamino]-phenyl}-ethanone], in the series with SARS-CoV-2 (WA1) (setting [6]), the IC50 was 450 nM.

For `CCNc1nc(NCC)nc(Nc2ccc(C)c(C)c2)n1` [VIRADEM-11768, N-(3,4-Dimethylhenyl)-N^1,N^2-diethyl-[1,3,5]triazine-2,4,6-triamine hydrochloride], the IC50 in the series with SARS-CoV-2 (WA1) (setting [7]) was above 1000 nM.

For `COc1ccc(Nc2nc(N3CCOCC3)nc(N3CCCc4ccccc43)n2)cc1` [VIRADEM-15272, [4-(3,4-Dihydro-2H-quinolin-1-yl)-6-morpholin-4-yl-[1,3,5]triazin-2-yl]-(4-methoxyphenyl)-amine], the IC50 in the series on SARS-CoV-2 (WA1) (setting [6]) was above 1000 nM. On to `COc1ccc(Nc2nc(N3CCCCC3)nc(N3CCCCC3)n2)cc1` [VIRADEM-11041, (4,6-Dipiperidine-1-yl-[1,3,5]triazin-2-yl)-(4-methoxyphenyl)-amine hydrochloride], for which the IC50 in the series on SARS-CoV-2 (WA1) (setting [6]) was above 1000 nM. For `CCOc1ccc(Nc2nc(N3CCCC3)nc(N3CCCC3)n2)cc1` [VIRADEM-11515, (4,6-Dipyrrolidin-1-yl-[1,3,5]triazin-2-yl)-(4-ethoxyphenyl)-amine hydrochloride], in the series on SARS-CoV-2 (WA1) (setting [6]), the IC50 was above 1000 nM.

Consider `CCc1cccc(Nc2nc(N3CCOCC3)nc(N3CCOCC3)n2)c1` [VIRADEM-15248, (4,6-Dimorpholin-4-yl-[1,3,5]triazin-2-yl)-(3-ethylphenyl)-amine], for which the IC50 in the series with SARS-CoV-2 (WA1) (setting [6]) was above 1000 nM. As for `Cc1cccc(N2C(N3CCOCC3)=NC(N)=NC2Nc2cccc(Cl)c2)c1` (stereo not shown) [VIRADEM-11781, N-(3-Chlorophenyl)-6-morpholin-4-yl-N^1-m-tolyl-[1,3,5]triazine-2,4-diamine hydrochloride], in the series with SARS-CoV-2 (WA1) (setting [6]), the IC50 was 110 nM. As for `c1ccc(Nc2nc(N3CCOCC3)nc(N3CCOCC3)n2)cc1` [VIRADEM-10846, (4,6-Dimorpholin-4-yl-[1,3,5]triazin-2-yl)-phenylamine hydrochloride], in the series with SARS-CoV-2 (WA1) (setting [6]), the IC50 is above 1000 nM. On the same count and under the same terms, next, `Fc1ccc(Nc2nc(N3CCOCC3)nc(N3CCOCC3)n2)cc1` [VIRADEM-10849, (4,6-Dimorpholin-4-yl-[1,3,5]triazin-2-yl)-(4-fluorophenyl)-amine hydrochloride]: above 1000 nM. Same read-out and setting: next, `NC1=NC(Nc2ccc3c(c2)OCO3)N(c2ccc(F)cc2)C(N2CCOCC2)=N1` (stereo not shown) [VIRADEM-11674, N-Benzo[1,3]dioxol-5-yl-N^1-(4-fluorophenyl)-6-morpholin-4-yl-[1,3,5]triazine-2,4-diamine hydrochloride]: 200 nM; `Cc1cc(C)cc(N2C(N3CCCC3)=NC(N)=NC2Nc2cccc(Cl)c2)c1` (stereo not shown) [VIRADEM-12278, N-(3-Chlorophenyl)-N^1-(3,5-dimethylphenyl)-6-pyrrolidin-1-yl-[1,3,5]triazine-2,4-diamine hydrochloride]: above 1000 nM. Regarding `CC(=O)Nc1ccc(Nc2nc(N3CCCC3)nc(N3CCCC3)n2)cc1` [VIRADEM-11510, N-[4-(4,6-Dipyrrolidin-1-yl-[1,3,5]triazin-2-ylamino)-phenyl]-acetamide hydrochloride], the IC50 in the series with SARS-CoV-2 (WA1) (setting [6]) is above 1000 nM.

The record behind these values is patent US20260076973A1 (priority 2023, published 2026).
